Calls of active or inactive are those of the source. The rule behind the calls is not given here.
How the values were obtained:
[1] = tested on: Rattus norvegicus; assay: Effect on body weight change in Zucker fatty rat at 30 mg/kg, after 5 days
[2] = tested on: Rattus norvegicus; assay: Effect on plasma glucose level in nonfasted Zucker fatty rat at 30 mg/kg, after 5 days
[3] = molecular target: T1, Glucocorticoid receptor (Homo sapiens, UniProt P04150)
T1 sequence (P04150 whole entry): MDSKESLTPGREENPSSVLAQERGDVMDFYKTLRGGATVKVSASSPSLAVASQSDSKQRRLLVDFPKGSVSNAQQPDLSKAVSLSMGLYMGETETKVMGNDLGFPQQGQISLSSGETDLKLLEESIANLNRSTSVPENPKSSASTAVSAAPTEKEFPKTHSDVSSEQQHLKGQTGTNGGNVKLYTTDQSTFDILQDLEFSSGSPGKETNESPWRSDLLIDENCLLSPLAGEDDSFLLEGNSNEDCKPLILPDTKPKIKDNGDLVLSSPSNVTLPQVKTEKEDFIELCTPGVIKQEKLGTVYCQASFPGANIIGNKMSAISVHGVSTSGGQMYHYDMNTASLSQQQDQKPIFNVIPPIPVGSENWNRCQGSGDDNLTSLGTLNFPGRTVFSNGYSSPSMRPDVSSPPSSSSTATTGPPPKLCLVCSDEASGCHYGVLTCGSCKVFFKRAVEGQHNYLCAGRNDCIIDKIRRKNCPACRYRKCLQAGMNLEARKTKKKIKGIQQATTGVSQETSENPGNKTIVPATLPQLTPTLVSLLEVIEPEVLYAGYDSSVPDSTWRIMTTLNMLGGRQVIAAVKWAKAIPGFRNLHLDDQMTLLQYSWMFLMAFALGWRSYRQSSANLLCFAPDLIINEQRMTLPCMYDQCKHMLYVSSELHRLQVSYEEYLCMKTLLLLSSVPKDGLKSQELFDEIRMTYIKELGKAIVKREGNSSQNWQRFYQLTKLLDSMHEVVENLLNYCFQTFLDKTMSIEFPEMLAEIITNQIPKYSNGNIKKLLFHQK
Description: Inhibition of human glucocorticoid receptor

[4] = tested on: Rattus norvegicus; assay: Effect on adrenal weight in Lewis rat with implanted cotton pellets at 19 mg/kg, po bid; assay type: functional
[5] = Half life in rat; assay type: ADME, organism-based; settings: in vivo
[6] = molecular target: T2, Interstitial collagenase (Homo sapiens) (UniProt P03956); assay: Inhibition of glucocorticoid-mediated human MMP1 expression in PMA stimulated A549 cells assessed as MMP1 protein level by ELISA relative to Dexamethasone; assay type: cell-based; design: scale not given: the % may be the effect or the level left
T2 sequence (whole entry): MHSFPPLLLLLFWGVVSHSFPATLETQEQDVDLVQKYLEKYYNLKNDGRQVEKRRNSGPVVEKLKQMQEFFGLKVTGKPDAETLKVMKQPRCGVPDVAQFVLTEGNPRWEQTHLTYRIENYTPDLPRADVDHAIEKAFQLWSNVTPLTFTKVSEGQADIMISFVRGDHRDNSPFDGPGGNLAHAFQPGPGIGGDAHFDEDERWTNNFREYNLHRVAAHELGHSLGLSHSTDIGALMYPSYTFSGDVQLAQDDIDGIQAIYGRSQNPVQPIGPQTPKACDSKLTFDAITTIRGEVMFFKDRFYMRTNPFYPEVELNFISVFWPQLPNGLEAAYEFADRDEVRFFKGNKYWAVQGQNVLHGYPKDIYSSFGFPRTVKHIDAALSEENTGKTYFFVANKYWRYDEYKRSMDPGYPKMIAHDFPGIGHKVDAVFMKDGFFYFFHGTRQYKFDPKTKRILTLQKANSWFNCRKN

[7] = tested on: Rattus norvegicus; assay: Effect on spleen weight in Lewis rat with implanted cotton pellets at 19 mg/kg, po bid; assay type: functional
[8] = tested on: Rattus norvegicus; assay: Effect on body weight change in Lewis rat with implanted cotton pellets at 5.0 mg/kg, po bid for 7 days; assay type: functional
[9] = tested on: Rattus norvegicus; assay: Effect on plasma insulin level in Zucker fatty rat at 30 mg/kg, after 5 days
[10] = tested on: Rattus norvegicus; assay: Effect on adrenal weight in Lewis rat with implanted cotton pellets at 10 mg/kg, po bid; assay type: functional
[11] = Plasma clearance in rat; assay type: ADME, organism-based
[12] = tested on: Rattus norvegicus; assay: Effect on thymus weight in Lewis rat with implanted cotton pellets at 5.0 mg/kg, po bid; assay type: functional
[13] = tested on: Rattus norvegicus; assay: Effect on body weight change in Lewis rat with implanted cotton pellets at 10 mg/kg, po bid for 4 days; assay type: functional
[14] = tested on: Rattus norvegicus; assay: Effect on thymus weight in Lewis rat with implanted cotton pellets at 19 mg/kg, po bid; assay type: functional
[15] = Volume of distribution at steady state in rat; assay type: ADME, organism-based; settings: in vivo, read-out: Vdss
[16] = tested on: Rattus norvegicus; assay: Effect on plasma triglyceride level in Zucker fatty rat at 30 mg/kg, after 5 days
[17] = tested on: Rattus norvegicus; assay: Effect on body weight change in Lewis rat with implanted cotton pellets at 10 mg/kg, po bid for 7 days; assay type: functional
[18] = tested on: Rattus norvegicus; assay: Effect on body weight change in Lewis rat with implanted cotton pellets at 5.0 mg/kg, po bid for 4 days; assay type: functional
[19] = tested on: Rattus norvegicus; assay: Effect on body weight change in Lewis rat with implanted cotton pellets at 19 mg/kg, po bid for 4 days; assay type: functional
[20] = tested on: Rattus norvegicus; assay: Inhibition of granuloma formation in cotton pellet implanted Lewis rat at 5.0 mg/kg, po bid; assay type: functional
[21] = molecular target: T3, Progesterone receptor (Homo sapiens, UniProt P06401); assay: Inhibition of human progesterone receptor
T3 sequence (P06401 whole entry): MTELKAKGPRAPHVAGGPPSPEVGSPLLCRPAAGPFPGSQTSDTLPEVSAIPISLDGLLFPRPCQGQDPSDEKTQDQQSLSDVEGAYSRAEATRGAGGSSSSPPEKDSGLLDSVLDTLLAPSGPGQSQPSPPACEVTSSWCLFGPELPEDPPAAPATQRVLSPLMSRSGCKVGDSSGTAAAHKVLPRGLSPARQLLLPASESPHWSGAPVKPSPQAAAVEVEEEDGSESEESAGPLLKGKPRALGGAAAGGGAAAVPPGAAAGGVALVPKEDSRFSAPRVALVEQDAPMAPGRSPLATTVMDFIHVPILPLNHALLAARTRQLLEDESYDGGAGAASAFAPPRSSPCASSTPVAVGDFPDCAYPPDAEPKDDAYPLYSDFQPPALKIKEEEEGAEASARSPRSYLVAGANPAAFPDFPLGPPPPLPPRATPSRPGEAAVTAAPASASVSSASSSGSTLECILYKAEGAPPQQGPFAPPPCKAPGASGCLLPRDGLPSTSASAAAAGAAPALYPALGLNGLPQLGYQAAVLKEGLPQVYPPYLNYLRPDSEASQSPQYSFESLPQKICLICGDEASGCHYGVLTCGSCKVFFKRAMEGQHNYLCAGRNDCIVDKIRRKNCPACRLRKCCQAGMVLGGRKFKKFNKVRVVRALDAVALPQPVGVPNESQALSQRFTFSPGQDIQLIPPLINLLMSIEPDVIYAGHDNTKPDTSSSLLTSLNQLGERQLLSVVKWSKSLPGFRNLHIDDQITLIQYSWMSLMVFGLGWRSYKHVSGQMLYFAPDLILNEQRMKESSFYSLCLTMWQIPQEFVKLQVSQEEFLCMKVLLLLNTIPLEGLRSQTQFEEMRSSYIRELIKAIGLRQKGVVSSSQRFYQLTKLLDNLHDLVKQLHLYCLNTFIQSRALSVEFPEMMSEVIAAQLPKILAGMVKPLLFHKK

[22] = tested on: Rattus norvegicus; assay: Inhibition of granuloma formation in cotton pellet implanted Lewis rat at 10 mg/kg, po bid; assay type: functional
[23] = species on record: Rattus norvegicus; assay: Transactivation activity of glutamine synthase in rat skeletal muscle cells relative to Dexamethasone; assay type: cell-based
[24] = tested on: Rattus norvegicus; assay: Effect on spleen weight in Lewis rat with implanted cotton pellets at 5.0 mg/kg, po bid; assay type: functional
[25] = tested on: Rattus norvegicus; assay: Effect on spleen weight in Lewis rat with implanted cotton pellets at 10 mg/kg, po bid; assay type: functional
[26] = species on record: Mus musculus; assay: Inhibition of LPS-induced TNFalpha production in mouse; assay type: functional
[27] = Oral bioavailability in rat; assay type: ADME, organism-based; settings: in vivo
[28] = tested on: Rattus norvegicus; assay: Effect on thymus weight in Lewis rat with implanted cotton pellets at 10 mg/kg, po bid; assay type: functional
[29] = tested on: Rattus norvegicus; assay: Effect on body weight change in Lewis rat with implanted cotton pellets at 19 mg/kg, po bid for 7 days; assay type: functional
[30] = tested on: Rattus norvegicus; assay: Inhibition of granuloma formation in cotton pellet implanted Lewis rat at 19 mg/kg, po bid; assay type: functional
[31] = tested on: Rattus norvegicus; assay: Effect on adrenal weight in Lewis rat with implanted cotton pellets at 5.0 mg/kg, po bid; assay type: functional

CCNC(=O)O[C@]1(C(=O)CO)[C@@H](C)C[C@H]2[C@@H]3CCC4=CC(=O)C=C[C@]4(C)[C@@]3(F)[C@@H](O)C[C@@]21C
Activity [1]: Active | Activity [2]: Active | IC50 [3]: 5.1 nM | Activity [4]: 30.8 mg | half-life [5]: 2.2 h | Activity [6]: 104% | Activity [7]: 305.3 mg | Activity [8]: 11 g | Activity [9]: Active | Activity [10]: 36.8 mg | clearance [11]: 26 mL/min/kg | Activity [12]: 170.7 mg | Activity [13]: 7.3 g | Activity [14]: 119.9 mg | Vd [15]: 3.22 L/kg | Activity [16]: Active | Activity [17]: 10 g | Activity [18]: 5.9 g | Activity [19]: 5.6 g | inhibition in vivo at 5 mg/kg [20]: 35.6% | IC50 [21]: > 1000 nM | inhibition in vivo at 10 mg/kg [22]: 33.5% | Activity [23]: 23.4% | Activity [24]: 330.9 mg | Activity [25]: 311.2 mg | ED50 [26]: 0.1 mg/kg | bioavailability [27]: 43% | Activity [28]: 144.9 mg | Activity [29]: 7.5 g | inhibition in vivo at 19 mg/kg [30]: 44.6% | Activity [31]: 39 mg

Reference: ChEMBL document CHEMBL1156642, “Discovery of betamethasone 17alpha-carbamates as dissociated glucocorticoid receptor modulators in the rat” (Bioorg Med Chem, 2008)
